Patent publication US20240130988A1, “Use of stilbene compounds in the preparation of anti-tumor drugs” (Guangzhou AnHao Pharmaceutical Technology CO., LTD., priority 2022, published 2024)
Marks after values point to notes of the source that are not given here.

Tests used:
[1] = tested on: human renal cell carcinoma AGHN; assay: Human renal cell carcinoma AGHN transplanted tumor in nude mice; assay type: in vivo, BALB/C nude mice
Method: A human renal cell carcinoma AGHN model transplanted into nude mice was used in the experiment to investigate the anti-tumor effect of test compounds. […] AGHN was measured.
(§1) Preparation: The compound was prepared as the injection at the desired concentration with sterile normal saline, prior to administration.
Animal strain: BALB/C, nude mice (SPF grade), weight: 19-21 g, gender: male. Number of animals in each treatment group: 8; number of animals in the control group: >12.
(§2) The tumor blocks of human renal cell carcinoma AGHN with good growth were cut into uniform small pieces of 3 mm under sterile conditions, and then subcutaneously inoculated into the right armpit of each mouse with a cannula. The mice were divided into 9 groups, 8 mice for each treatment group, while >12 mice were included in the control group.
14 days after inoculation, the average volume of the tumor block was about 100 mm^3, The animals were regrouped based on the size of the tumor, and the animals with tumors that were too large and too small were sifted out. For each group, the average volume of tumors was basically the same, and then the mice were initially treated with test compounds. The mice were intraperitoneally injected once a day for 14 days, at a dosage of 0.2 mL/20 g body weight; the mice in the control group were given the same volume of sterile normal saline. From the 14th day of inoculation, the long diameter a (mm) of the tumor, together with the perpendicular short diameter b (mm), was measured using a digital electronic caliper, twice a week. The calculation formula of tumor volume is: TV=ab^2/2, and the formula for calculating the relative tumor volume is: RTV=Vt/Vo, wherein Vo denotes the tumor volume measured when the mice were divided into groups (i.e. d1), and Vt denotes the tumor volume from each measurement.
(§3) The result determination is based on the following formula: […]

[2] = tested on: LLC (mouse lung cancer cells); assay: Enrichment of CD8+ cytotoxic T lymphocytes in tumor tissue, Lewis non-small cell lung cancer model of mice; assay type: in vivo; conditions: 400 mg/kg ip once a day for 10 days; for The ratio of CD8^+ in total immune cells of tumor tissues (%): flow cytometry; for The ratio of distribution area in tumor tissues (%): CD8+ immunohistochemistry
Method: LLC (mouse lung cancer cells) were a mouse Lewis lung cancer cells.
The modeling method for LLC cell lung cancer in mice was as follows:
LLC cells were cultured in the general medium containing 10% fetal bovine serum and 100 μg/mL of double antibody (penicillin±streptomycin), and then cultivated in a 37° C., 5% CO2 cell incubator for routine incubation. LLC cells, that had grown to logarithmic phase, were digested with 0.25% trypsin (containing EDTA) to form a cell suspension, which was centrifuged at 1000 rpm/min for 3 min. The supernatant was discarded, and cell precipitates were collected, that were resuspended in culture medium without serum and double antibody. The cell suspension was further centrifuged to adjust the volume under the same conditions with the aid of cell counting, so as to prepare a cell suspension at a concentration of […] was injected into the right abdomen of each mouse, to complete the inoculation of tumor cells. The tumor was allowed to grew about 10 days, and the volume reached around 100 mm^3, before the mice were treated with test compounds.
Drug preparation: compounds 1-13 of the present invention were respective prepared into an injection with injection water.
Experimental methods: The model mice with LLC cell lung cancer were treated by intraperitoneal administration of 400 mg/kg injection containing the compound of the present invention. The model mice were divided into a negative control group (model mice only receiving equal volume of injection water by intraperitoneal administration) and treatment groups (model mice receiving the injection prepared with the compound of the present invention by intraperitoneal administration). The intraperitoneal injection regimen was carried out by injecting once a day at the pre-determined time. Before administration, the mice were weighed, and then treated with the injection at a dosage of 10 mL/kg, After successive administration for 10 days, that is, on the 10th day after receiving treatment, the mice were sacrificed, and the subcutaneous tumors were stripped to detect the ratio of cytotoxic T lymphocyte antigen CD8^+ in tumor tissues of the negative group and the treatment group by flow cytometry.
CD8^+ tumor-infiltrating lymphocytes in tumor tissues were detected by flow cytometry. The specific steps were as follows:
The mice were sacrificed, and then the abdominal epidermis of the mice was cut open using ophthalmic scissors, to fully expose the subcutaneous tumors. The subcutaneous tumor tissues on the right side of the mouse's abdomen were gradually peeled off with tweezers and ophthalmic scissors. After rinsing with PBS, the stripped tumor tissues were cut into about 1 mm using ophthalmic scissors, and then placed in 3 mL of PBS buffer containing 100 μg/mL of hyaluronidase. A centrifuge tube containing a dispersed liquid was placed in a water bath and kept at 37° C. for 20 min. A pipette was used to blow and shake the digestive tumor tissues every 5 minutes to fully digest. The dispersed liquid containing undigested tumor tissues was filtered through a 70 μm stainless steel cell screen, and the remaining undigested tumor tissues were ground using a push rod of 20 mL syringe on 70 μm cell screen and rinsed 5 times with 1 mL of PBS while grinding. The cell suspension passing the cell screen was transferred to a 15 mL centrifuge tube, and centrifuged at 4000 rpm for 3 min. Then, cell precipitates were collected, to which was added 2 mL of red cell lysis buffer, and rested for 10 min, followed by centrifuging at 4000 rpm for 3 min. After washing with PBS, the cells were resuspended by adding 2-3 mL of PBS.
An appropriate amount of cell suspension was used as the sample for flow cytometry, and after counting, the cell suspension was adjusted to have a concentration of 5×10^6/mL. 100 μL of cell suspension was added to a test tube with a pipettor. […]

[3] = tested on: human gastric cancer MGC803; assay: Human gastric cancer MGC803 transplanted tumor in nude mice; assay type: in vivo, BALB/C nude mice; conditions: MGC803, 200 mg/kg ip × 14
Method: A human gastric cancer MGC803 model transplanted into nude mice was used in the experiment to investigate the anti-tumor effect of test compounds.
as §1
Animal strain: BALB/C nude mice (SPF grade), weight: 19-21 g, gender: male.
Number of animals in each treatment group: 8; number of animals in the control group: >12.
as §2, with “human gastric cancer MGC803” for “human renal cell carcinoma AGHN”, “cannula. These” for “cannula. The”, “while more than 12” for “while >12”
14 days after inoculation, the average volume of the tumor block was about 100 mm^3. The animals were regrouped based on the size of the tumor, and the animals with tumors that were too large and too small were sifted out. For each group, the average volume of tumors was basically the same, and then the mice were initially treated with test compounds. The mice were intraperitoneally injected once a day for 14 days, at a dosage of 0.2 mL/20 g body weight. From the 14th day of inoculation, the long diameter a (mm) of the tumor, together with the perpendicular short diameter b (mm), was measured using a digital electronic caliper, twice a week. The calculation formula of tumor volume is: TV=ab^2/2, and the formula for calculating the relative tumor volume is RTV=Vt/Vo, wherein Vo denotes the tumor volume measured when the mice were divided into groups(i.e. d1), and Vt is the tumor volume from each measurement.
as §3

| SMILES | RTV (d 18) ([1]; 200 mg/kg ip × 14) | Tumor inhibitory rate % ([1]; 200 mg/kg ip × 14) | The ratio of CD8^+ in total immune cells of tumor tissues (%) ([2]; 400 mg/kg) | RTV (d 18) [3] | Tumor inhibitory rate % [3] | The ratio of distribution area in tumor tissues (%) [2] [%] | The ratio of CD8^+ in total immune cells of tumor tissues (%) [2] [%] | Tumor inhibitory rate % ([1]; 200 mg/kg ip × 14, 200 mg/kg) [%] | Tumor inhibitory rate % ([1]; 200 mg/kg ip × 14, listed as compound 4, 200 mg/kg) | Tumor inhibitory rate % ([3]; listed as compound 6) |
| --- | --- | --- | --- | --- | --- | --- | --- | --- | --- | --- |
| COc1ccc(/C=C(/C(=O)O)c2cc(OC)c(OC)c(OC)c2)c(O)c1O [Compound 1, (E)-3-(2,3-dihydroxy-4-methoxyphenyl)-2-(3,4,5-trimethoxylphenyl)acrylic acid] | 6.31 ± 0.91 | 54.24^## % | 0.0605 ± 0.0124 | 5.87 ± 0.63 | 49.05^## % | – | – | – | – | – |
| COc1cc(/C=C(/C(=O)O)c2cc(OC)c(OC)c(OC)c2)cc(OC)c1 [Compound 3, (E)-3-(3,5-dimethoxyphenyl)-2-(3,4,5-trimethoxyphenyl)acrylic acid] | 5.47 ± 0.82 | 60.33^# % | – | 4.79 ± 0.54 | 58.42^## % | 6.731 ± 0.5692 | 0.0762 ± 0.0103 | – | – | – |
| COc1ccc(/C=C(/C(=O)O)c2cc(OC)c(OC)c(OC)c2)cc1F [Compound 4, (E)-3-(3-fluoro-4-methoxyphenyl)-2-(3,4,5-trimethoxyphenyl)acrylic acid] | 4.31 ± 0.58 | – | – | – | – | 6.872 ± 0.7633 | 0.0787 ± 0.0122 | 68.75 | best inhibitory effect on renal cell carcinoma | – |
| COc1ccc(/C=C(/C(=O)O)c2cc(OC)c(OC)c(OC)c2)cc1O [Compound 6, (E)-3-(3-hydroxy-4-methoxyphenyl)-2-(3,4,5-trimethoxyphenyl)acrylic acid] | 6.53 ± 0.85 | 52.64^## % | – | 3.43 ± 0.51 | 70.23% | – | 0.0814 ± 0.0118 | – | – | best inhibitory effect on gastric cancer |
| COc1cc(/C(=C\c2cc(O)c(OC)c(F)c2)C(=O)O)cc(OC)c1OC [Compound 8, (E)-3-(5-fluoro-3-hydroxy-4-methoxyphenyl)-2-(3,4,5-trimethoxyphenyl)acrylic acid] | 6.22 ± 0.63 | 54.89^## % | – | 4.59 ± 0.47 | 60.16^## % | – | 0.0735 ± 0.0127 | – | – | – |
| COc1ccc(/C=C(/C(=O)O)c2cc(OC)c(OC)c(OC)c2)c(F)c1O [Compound 9, (E)-3-(2-fluoro-3-hydroxy-4-methoxyphenyl)-2-(3,4,5-trimethoxyphenyl)acrylic acid] | 5.12 ± 0.77 | 62.87^# % | – | – | – | – | 0.0753 ± 0.0123 | – | – | – |
| COc1cc(/C=C(/C(=O)[O-])c2cc(OC)c(OC)c(OC)c2)cc(OC)c1F.[K+] [Compound 10] | – | – | – | 4.21 ± 0.58 | 63.45^# % | 5.847 ± 0.6349 | 0.0623 ± 0.0114 | – | – | – |
| COc1cc(/C(=C\c2cc(O)c(OC)c(O)c2)C(=O)O)cc(OC)c1OC [Compound 11, (E)-3-(3,5-dihydroxy-4-methoxyphenyl)-2-(3,4,5-trimethoxyphenyl)acrylic acid] | – | – | – | 4.72 ± 0.61 | 59.03^## % | – | 0.0653 ± 0.0122 | – | – | – |
